Values quoted from earlier work as cited in patent US20240316075A1, “METHODS FOR TREATMENT OF PAIN WITH CANNABINOIDS” (ANANDA SCIENTIFIC, INC, priority 2021, published 2024).

Legend:
[1] = rats, oral, 120 mg/kg dose
CB2 receptors = CB2 receptors (Homo sapiens, UniProt P34972)
[2] = doses ranging from 10 mg to 6000 mg, single and multiple doses

Chain of CB2 receptors (P34972 whole entry): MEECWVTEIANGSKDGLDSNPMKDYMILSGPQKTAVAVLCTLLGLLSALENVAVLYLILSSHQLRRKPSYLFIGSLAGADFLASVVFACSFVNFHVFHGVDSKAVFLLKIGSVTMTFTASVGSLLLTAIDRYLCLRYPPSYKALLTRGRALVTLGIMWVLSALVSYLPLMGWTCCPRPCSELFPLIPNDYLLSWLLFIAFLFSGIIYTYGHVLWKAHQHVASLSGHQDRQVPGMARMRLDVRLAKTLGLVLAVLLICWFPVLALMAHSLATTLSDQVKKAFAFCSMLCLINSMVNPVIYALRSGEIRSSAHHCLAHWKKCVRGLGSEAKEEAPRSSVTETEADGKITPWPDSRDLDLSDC

Question: Which T½ [1] does the source give for `C=C(C)[C@@H]1CCC(C)=C[C@H]1c1c(O)cc(CCCCC)cc1O` [CBD, 2-(1R,6R)-3-methyl-6-prop-1-en-2-ylcyclohex-2-en-1-yl-5-pentylbenzene-1,3-diol] here?
Answer: 4 to 5 h

Question: And the “Affinity for CB2 receptors” value (CB2 receptors)?
Answer: low affinity

Question: And the Safety finding [2]?
Answer: safe
